The values below come from patent US5302602A, “Tricyclic thromboxane A2 antagonists” (Kyowa Hakko Kogyo Co., Ltd., priority 1987, dated 1994).

Read-outs that look alike come from different tables or passages of the source. Where only a bound is given, the exact number is not on record here.

The target in series [1] is T1, TXA2 receptor (Cavia porcellus, UniProt A0A286Y4I8).
T1 construct: To a washed platelet suspension (1×10^8 platelets) of guinea pig; endogenous in cells; host or cells: washed guinea pig platelets
T1 sequence (A0A286Y4I8 1-347): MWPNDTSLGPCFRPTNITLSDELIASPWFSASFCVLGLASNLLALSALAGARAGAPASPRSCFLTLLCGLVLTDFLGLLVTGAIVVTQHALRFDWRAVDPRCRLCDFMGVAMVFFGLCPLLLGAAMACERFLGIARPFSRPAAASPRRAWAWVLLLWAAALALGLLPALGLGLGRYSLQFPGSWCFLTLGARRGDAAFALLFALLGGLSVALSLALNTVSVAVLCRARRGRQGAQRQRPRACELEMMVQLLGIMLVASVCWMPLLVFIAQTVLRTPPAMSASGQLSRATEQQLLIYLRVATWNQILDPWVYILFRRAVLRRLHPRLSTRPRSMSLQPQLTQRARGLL
The series can be described thus: Binding study using 3H-U46619 (TXA2 receptor binding activities test). The note with it: for inhibition at 1 µM: 20 min, read-out: % Inhibition (3H-U46619 binding); for inhibitory activity (TXA2 receptor binding), in words: statement in words on Table 4. More on the design: species or system guinea pig. As to the method: Receptor binding was determined by a modified method of Kattelman et al. (Thrombosis Research, 41, 471 (1986)].
To a washed platelet suspension (1×10^8 platelets) of guinea pig were added 12 nM of tritium-labeled U46619 (^3 H-U46619; NEN Co., Ltd.) and a test compound (final concentration: 1 μM) solution. After keeping at 37° C. for 20 minutes, the mixture was rapidly filtered through a glass fiber filter paper (GF/C; Whatman). Immediately, the filter paper was washed 5 times with 3 ml of ice-cold 50 mM Tris-hydroxymethylaminomethane buffer (containing 100 mM sodium chloride). The glass fiber filter was transferred to a vial and a scintillator (Ex-H; manufactured by Wako Pure Chemical Industries Co., Ltd.) was added thereto. The radioactivity was determined with a liquid scintillation counter.
It is already known that ^3 H-U46619 is capable of binding with TXA2 receptor (see the publication supra). An inhibitory activity of the test compound against this binding means an ability of binding with the TXA2 receptor. It is also known that a good relationship exists between this binding activity and the anti-platelet activity (TXA2 antagonizing test).
An inhibitory activity (binding activity) of the test compound was calculated by the following equation. [formula]
Amount of the total binding is an amount of ^3 H-U46619-bound radioactivity in the absence of a test compound.
The amount of non-specific binding is used to mean an amount of ^3 H-U46619-bound radioactivity in the presence of 10 μM U-46619.
The amount bound in the presence of a test compound is an amount of ^3 H-U46619-bound radioactivity in the presence of a test compound in various concentrations.

Series [2] concerns guinea pig platelets (TXA2/prostaglandin H2 receptor). The series can be described thus: Test on anti-platelet activity (TXA2 antagonizing test): inhibition of U-46619-induced platelet aggregation. It counts as cell-based. The settings on record: Cavia porcellus, 0.05 h; minimum concentration inhibiting U-46619 (0.5-1 μM)-induced platelet aggregation by 30% or more; guinea pig PRP; read-out: TXA2 Antagonizing Activity (MEC), minimum effective concentration. As to the method: Using guinea pig platelets influence of the compounds in accordance with the present invention on platelet aggregation induced by U-46619 (9,11-dideoxy-9α,11a-methanoepoxyprostaglandin F2 α; manufactured by Cayman Chemica Co., Ltd.) which is a TXA2 /prostaglandin H2 receptor stimulant was examined.
Male guinea pig (Hartley strain; body weight, 300 to 600 g) was anesthesized by intraperitoneal administration of sodium pentobarbital (30 mg/kg) and blood was collected from the descending aorta of the abdomen with a 1/10 volume of sodium citrate. By centrifugation (KC-70: manufactured by Kubota Co., Ltd.) at 800 rpm for 10 minutes, platelet rich plasma (PRP) was collected. Platelet aggregation induced by U-46619 (0.5-1 μM) was determined by photometry [Born, G.V.R. et al., Nature (London), 194, 927-929 (1962)]. A test compound was pretreated 3 minutes prior to aggregation induction and ability of inhibiting aggregation was measured. The minimum concentration for inhibiting platelet aggregation by 30% or more was defined as the minimum effective concentration (MEC) of the test compound.

In series [3] the test system is homologous passive cutaneous anaphylaxis (PCA). The series can be described thus: Antiallergic activity test: homologous passive cutaneous anaphylaxis (PCA) test for 48 hours using rats. It counts as in vivo, rat (Wistar strain, male). The settings on record: Rattus norvegicus, po, minimum dose with at least one of 3 rats showing PCA inhibition rate 50% or more, read-out: Antiallergic Activity (MED), minimum effective dose. How it is done: Antiallergic activity was examined in accordance with the passive cutaneous anaphylaxis (PCA) test using rats. As test animals, Wistar strain male rats weighing 180 to 220 g were used to collect antiserum and for the PCA test, Wistar strain male rats weighing 120 to 140 g were used.
Anti-EWA rat serum was prepared according to the method of Stotland and Share [Can. J. Physiol. Pharmacol., 52, 1114 (1974)]. That is, 1 mg of EWA was mixed with 20 mg of aluminum hydroxide gel and 0.5 ml of pertussis-diphtberia-tetanus mixed vaccine. The mixture was subcutaneously administered to the rat paw in 4 portions. Fourteen days after, blood was collected from the carotid artery and the serum was isolated and stored in a state frozen at -80° C. Titer of this antiserum to homologous PCA for 48 hours was 1:32.
Three rats were used per group. After the hair at the back was cut, 0.05 ml each of anti-EWA rat serum diluted to 8-fold with physiological saline was intracutaneously injected to each rat at the back in 2 places to passively sensitize the rat. A test compound or its solution (physiological saline solution or CMC solution) was orally administered 47 hours after and 0.5 ml/100 g of 1% Evans Blue physiological saline containing 2 mg of antigen EWA was then intravenously administered to the tail vein an hour after the administration. Thirty minutes later, the animal was bled to death. The skin was peeled off and a leaked dye amount at the blue dyed portion was measured according to the method of Katayama et al. [Microbiol. Immunol., 22, 89 (1978)]. That is, the blue dyed portion was cut off with scissors, put into a test tube charged with 1 ml of 1 N potassium hydroxide and incubated at 37° C. for 24 hours. After 9 ml of a mixture of 0.6 N phosphate:acetone (5:13) was added to the system, the mixture was shaken followed by centrifugation at 2500 rpm for 10 minutes. The absorbancy of the supernatant at 620 nm was measured and the leaked dye amount was quantitatively determined by comparison with a calibration curve previously prepared. A value of one rat was obtained from a mean value of the two portions and an inhibition rate-of each rat was calculated according to the following equation. [formula]
The case showing that the inhibition rate is 50% or more is judged to be positive in the PCA inhibition activity and the minimum dose in which at least one out of 3 rats was recognized to be positive was defined as the minimum effective dose (MED) of the test compound.

The subject of series [4] is mice. The series can be described thus: Acute toxicity test. It counts as in vivo. The settings on record: mortality observed for seven days. As to the method: Using three dd strain male mice weighing 20±1 g, a test compound was orally (po; 300 mg/kg) or intraperitoneally (ip; 100 mg/kg) administered. MLD (the minimum lethal dose) was determined by observing the mortality for seven days after administration.

Series [5] deals with T2, histamine H1 receptor (Cavia porcellus, UniProt P31389).
T2 construct: from tissue; host or cells: guinea pig cerebellum membranes
The series can be described thus: Binding study using 3H-pyrilamine (histamine H1 receptor binding). More on the design: species or system guinea pig. The settings on record: read-out: (%) Inhibition (3H-pyrilamine binding). As to the method:
Receptor binding was determined by the method of chang et al. [J. Neurochem., 32, 1953 (1979)].
The cerebellum of guinea pig was suspended in a 40-fold amount (V/W) of chilled 50 mM phosphate buffer (pH 7.5) with Polytron Homogenizer (Kinematica Co., Ltd.). The suspension was centrifuged (35,500×g, 10 minutes). The resulting precipitates were resuspended in an equal amount of fresh buffer followed by centrifugation. A 100-fold amount (V/W) of chilled buffer was added to the final precipitates.
To 1 ml of the membrane suspension adjusted as described above were added 50 μl of tritium-labeled pyrilamine (^3 H-pyrilamine; NEN Co., Ltd.) and 50 μl of a test compound. The mixture was allowed to stand at 25° C. for 30 minutes, 4 ml of chilled buffer was added thereto. The mixture was rapidly filtered through a glass fiber filter (GF/C; Whatman). The filter paper was further washed three times with 5 ml of buffer. Hereafter procedures were performed in a manner similar to the TXA2 receptor binding test to determine radioactivity.
An inhibitory activity of the test compound against H1 receptor was calculated by the following equation. [formula]
Amount of the total binding is an amount of ^3 H-pyrilamine-bound radioactivity in the absence of a test compound.
The amount of non-specific binding is an amount of ^3 H-pyrilamine-bound radioactivity in the presence of 3 μM Astemizole (manufactured by Janesen Pharmaceutics).
The amount bound in the presence of a test compound is an amount of ^3 H-pyrilamine-bound radioactivity in the presence of a test compound in various concentrations.

[6] abbreviates: test compound 1 μM, 12 nM 3H-U46619, washed guinea pig platelets, 37° C., 20 minutes.

T2 sequence (P31389 whole entry): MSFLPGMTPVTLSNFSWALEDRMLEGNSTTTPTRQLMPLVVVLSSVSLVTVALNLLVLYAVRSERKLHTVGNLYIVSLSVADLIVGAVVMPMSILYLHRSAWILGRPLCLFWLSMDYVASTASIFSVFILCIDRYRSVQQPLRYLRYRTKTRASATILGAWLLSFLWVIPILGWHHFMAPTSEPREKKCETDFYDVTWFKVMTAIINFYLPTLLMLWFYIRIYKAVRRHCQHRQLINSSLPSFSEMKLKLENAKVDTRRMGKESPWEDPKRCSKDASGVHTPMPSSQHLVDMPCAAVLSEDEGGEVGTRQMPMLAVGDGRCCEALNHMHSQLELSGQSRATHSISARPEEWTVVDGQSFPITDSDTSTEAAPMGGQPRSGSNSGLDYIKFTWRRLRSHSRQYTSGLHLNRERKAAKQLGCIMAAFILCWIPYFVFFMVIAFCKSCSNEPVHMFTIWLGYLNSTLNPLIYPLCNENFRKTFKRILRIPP

In general, inhibition refers to the drop in the measured response relative to a control, in per cent. Turning to `CN(C)CCC=C1c2ccccc2COc2ccc(CC(=O)O)cc21` [Compound (B), reference compound], in series [1] (setting [6]), the inhibition at 1 µM amounted to 1%. In addition, the “inhibitory activity (TXA2 receptor binding), in words” value (“inhibitory activity” below) in series [1] was “not observed”.
Regarding `O=C(O)c1ccc2c(c1)/C(=C/CN1CCN(c3ccc(F)cc3)CC1)c1ccccc1CO2` [Compound E-73b, (E)-11-[2-[4-(4-Fluorophenyl)-1-piperazinyl]ethylidene]-6,11-dihydrodibenz[b,e]oxepin-2-carboxylic acid.isopropanol. monohydrate], in series [2], the minimal effective concentration turned out to be 10 µg/mL. Also, in series [3], the minimal effective dose was more than 100 mg/kg. The results for the “Acute Toxicity (MLD), minimum lethal dose” value (shortened to “Acute Toxicity (MLD)”) in series [4] (ip) and in series [4] (po) were more than 100 mg/kg and more than 300 mg/kg, respectively. Further, the inhibition at 1 µM in series [1] (setting [6]) amounted to 85%.
Regarding `CN1CCC(=C2c3ccccc3CC(=O)c3sccc32)CC1` [Ketotifen, reference compound], in series [1], the inhibition at 1 µM was -3% and the “inhibitory activity” value is reported as “not observed”.
`O=C(O)c1ccc2c(c1)C(SCCN1CCN(c3ccc(F)cc3)CC1)c1ccccc1CO2` (stereo not drawn) [Compound 8b]: in series [2], the minimal effective concentration stood at 1 µg/mL. Moreover, in series [3], the minimal effective dose was 10 mg/kg. Besides, the figures for the “Acute Toxicity (MLD)” value in series [4] (ip) and in series [4] (po) were more than 100 mg/kg and more than 300 mg/kg, respectively.
For the molecule `CN(C)CCSC1c2ccccc2COc2ccc(C(=O)O)cc21` (stereo not drawn) [Compound (A), reference compound], the inhibition at 1 µM in series [1] (setting [6]) was -4%; in series [5] it was 88%. For the same molecule, the “inhibitory activity” value in series [1] is given as “not observed”.
As for `O=C(O)c1ccc2c(c1)/C(=C/CN1CCN(CC=Cc3ccccc3)CC1)c1ccccc1CO2` [E-75b', (E)-11-[3-(4-Cinnamyl-1-piperazinyl)ethylidene]-6,11-dihydrodibenz[b,e]oxepin-2-carboxylic acid.difumarate-0.5 hydrate], the minimal effective concentration in series [2] turned out to be 0.1 µg/mL. In series [3], the minimal effective dose worked out at 100 mg/kg. In addition, the “Acute Toxicity (MLD)” value is more than 100 mg/kg in series [4] (ip) and more than 300 mg/kg in series [4] (po). Besides, in series [1] (setting [6]), the inhibition at 1 µM is 85%.
In the same order, the values of `O=C(O)c1ccc2c(c1)/C(=C/CN1CCN(S(=O)(=O)C=Cc3ccccc3)CC1)c1ccccc1CO2` [Compound E-78b, (E)-11-[2-[4-(Styrylsulfonyl)-1-piperazinyl]ethylidene]-6,11-dihydrodibenz[b,e]oxepin-2-carboxylic acid-0.1 iso-propanol.0.1 hydrate] are 3 µg/mL, more than 100 mg/kg, more than 100 mg/kg, more than 300 mg/kg and 83%.
On the same counts, the results for `O=C(O)c1ccc2c(c1)/C(=C/CN1CCN(S(=O)(=O)c3cccs3)CC1)c1ccccc1CO2` [Compound E-79b, (E)-11-[2-[4-(2-Thienylsulfonyl)-1-piperazinyl]ethylidene]-6,11-dihydrodibenz[b,e]oxepin-2-carboxylic acid.0.5 hydrate] are 30 µg/mL, more than 100 mg/kg, more than 100 mg/kg, more than 300 mg/kg and 77%.
For `O=C(O)c1ccc2c(c1)C(SCCN1CCC(c3ccccc3)CC1)c1ccccc1CO2` (stereo not drawn) [Compound 37b, 11-[2-(4-Phenyl-1-piperidinyl)ethyl]thio-6,11-dihydrodibenz[b,e]oxepin-2-carboxylic acid], in series [2], the minimal effective concentration worked out at 10 µg/mL. In addition, in series [3], the minimal effective dose came out at 1 mg/kg. For the same molecule, the entries for the “Acute Toxicity (MLD)” value in series [4] (ip) and in series [4] (po) were more than 100 mg/kg and more than 300 mg/kg, respectively.
In the same order, the values of `COc1ccccc1N1CCN(CCSC2c3ccccc3COc3ccc(C(=O)O)cc32)CC1` (stereo not drawn) [Compound 9b] are 1 µg/mL, 10 mg/kg, more than 100 mg/kg and more than 300 mg/kg.
